1 compound from US20210246164A1, “PEPTIDIC PROTEIN KINASE C INHIBITORS AND USES THEREOF” (UNIVERSITE DE GENEVE, priority 2016, published 2021) can be followed below.

Where a SMILES comes first, the peptide text is derived from it. The star is where a group is joined. Myristoyl = CCCCCCCCCCCCCC(=O)*

In data set [1] the test system is primary human nasal epithelial cell monolayers. Put plainly: Permeabilization of fluorescein-conjugated dextran (FD) across nasal epithelial monolayers (cumulative release, Papp). The format is cell-based. The protocol:
To assess the potential effects of peptides of the invention on the permeabilization of therapeutic molecules, fluorescein-conjugated dextrans (FD) were used to as a model for assessing paracellular drug transport (apical to basolateral) across the epithelial monolayer.
To ensure that the integrity of the monolayer was maintained during the course of the experiment, trans-epithelial electrical resistance (TEER) was measured before and after these studies, as described below.
Mucilair™ human primary nasal and bronchial epithelial cells (Epithelix sarl, Geneva, Switzerland) were used (Huang et. al., 2013, Toxicol. in Vitro 27: 1151-1156).
Before each experiment, the culture medium was removed from each compartment and the monolayer was washed once with 200 μl of saline (0.9%) and once with warm Hanks' Balanced Salt Solution (HBSS) (37° C.). In the basolateral compartment, 600 μL of pre-warmed HBSS was placed and the cells were returned to the incubator at 37° C. for 30 minutes to equilibrate. After equilibration, the peptides of the invention were applied to the apical side of an epithelial monolayer 5 minutes prior to the addition of FD solution. Peptide 1 according to the invention (P1 of SEQ ID NO: 2) was tested in comparison with comparative peptides C1 (SEQ ID NO: 4) and C2 (SEQ ID NO: 5). FD having a molecular weight (MW) of 4 and 150 kDa were used.
All peptides were used at a final concentration of 10 μM. The vehicle was used as a control (CTRL). The FD solution was added to the apical compartment to make a final volume of 200 μl. Samples of 100 μL were taken from the basal compartment of each well every 30 minutes over a period of 150 minutes, with each volume being replaced with equal amount of fresh warm buffer to maintain sink condition. The fluorescence of FD was measured in black 96-well plates using a fluorescence plate reader (BioTek Synergy Mx plate reader, BioTek Instruments GmbH, Lucerne, Switzerland), using excitation and emission wavelengths of 485 and 520 nm, respectively. Cumulative release (ng) corresponds to the actual amount of drug released cumulatively and corresponds to the amount in the suspension medium at any time plus the amount of the drug lost during each sampling.
Trans-epithelial electrical resistance (TEER): After addition of 200 μl of culture medium to the apical compartment of the tissue cultures, resistance was measured across cultures with an EVOMX volt-ohm-meter (World Precision Instruments UK, Stevenage) in triplicate for each time point. The TEER values (Ω) were converted normalized by using the following formula: TEER (Ωcm^2)=(resistance value (Ω)−100 (Ω))×0.33 (cm^2), where 100Ω is the resistance of the membrane and 0.33 cm^2 is the total surface of the epithelium.
To assess the role of the membrane penetrating group (myristoyl) in peptides of the invention in the enhancing of the permeability of macromolecules through epithelial cell layers, the permeabilizing capacity of peptide P1 of the invention was compared to a comparative peptide C3 (SEQ ID NO: 6) corresponding to the same peptide without the myristoyl group. The permeabilizing capacity of a peptide P2 (SEQ ID NO: 3) of the invention was also assessed. Uptake experiments and TEER were conducted as described in Example 2.
To assess the duration of the permeabilization effect of the peptide of the invention, apparent permeability of peptides of various lengths was evaluated as follows. Apparent permeability refers to the amount of released FD at that time point when the sample is collected.
The tested Peptides, uptake experiments and TEER were as described in Example 2.
Apparent permeability of FD: The apparent permeability (Papp) of FD was calculated using equation 1: Papp=(dQ/dt)/A*C0 (1)

In data set [2] the test system is Antigen-specific serum antibodies (IgG total and IgG1). Put plainly: Intranasal immunization with Ova, antigen-specific serum antibodies by ELISA. The following applies: i.n. 5 μg Ova with 5 μg P1 vs Ova alone; after three immunizations. The class given is in vivo, mice. An excerpt:
The effect of peptides of the invention on the efficacy of mucosal vaccines has been investigated by administering a combination of P1 with a soluble protein antigen and induced immunization has been investigated.
6 week-old female C57-BL/6 mice were purchased from Charles River Laboratories (Harlan, France) and hosted under standard conditions following the corresponding guidelines of Animal Ethic Committee. Mice (n=5) were immunized by intranasal (i.n.) administration under anesthesia on days 0, 14, and 28 with the following immunogens: saline (PBS) as a negative control, ovalbumin (Ova) (in NaCl 0.9% solution) or Ova+P1 Ova/dose (5 μg) (mixture of solution of Ova in NaCl 0.9% and solution of P1 in NaCl 0.9%) as a mixture were administered to each animal group in 12 μL (6 μL per nostril). P1 was used at a concentration of 5 μg/dose. […]
Antigen-specific serum antibodies (IgG total and IgG1) were measured by ELISA (enzyme-linked immunosorbent assay). […] Plates were washed 4 times, and HRP was quantified by adding 100 μl of TMB (3,3′,5,5′-Tetramethylbenzidine) substrate (Pierce Protein Research Products; Rockford, Ill.). Antibody titers were determined at the midpoint of the optical density-log dilution curves after subtraction of the naive background, and none-responding mice were given an arbitrary titer of 10.
(In general: ELISA stands for enzyme-linked immunosorbent assay.)

Setting [3] is: peptide 10 μM apical, 150 minutes, vs control.

As to `CCCCCCCCCCCCCC(=O)N[C@@H](C)C(=O)N[C@@H](CCCNC(=N)N)C(=O)N[C@@H](CCCNC(=N)N)C(=O)N[C@@H](Cc1c[nH]c2ccccc12)C(=O)N[C@@H](CCCNC(=N)N)C(=O)O` [Peptide P1, Myr-ARRWR] (Myristoyl-ARRWR-OH), in data set [1] (setting [3]), the “permeability of FD of 150 kDa (cumulative release)” value is given as “significantly increases the permeability” and the “permeability of fluorescein conjugated dextran of 4 kDa (cumulative release)” value is recorded as “increased the permeability of the fluorescein conjugated dextran of 4 kDa in a significant manner”. Besides, in data set [1] (peptide 10 μM, 150 minutes), the “Papp for FD of 150 kDa over time” value is “immediate increase in the first 30 minutes and steadily decreased therefrom”; the “reversibility of permeabilization of FD 4 kDa (decrease in Papp overtime)” value is “reversible”. In addition, the “reversibility of the permeabilization effect, FD of 150 kDa” value in data set [1] (peptide 10 μM, FIG. 6) is reported as “Reversibility of the permeabilization effect was also observed”. In addition, in data set [2], the “Ova-specific serum IgG1 response” value was “significantly higher” and the “Ova-specific serum IgG (total) response” value is recorded as “significantly higher”.
